Where no end group is shown, it is not given here. The star is where a group is joined. Biotin = O=C1N[C@H]2[C@H](CS[C@H]2CCCCC(=O)*)N1
Legend:
immature BM-DCs = experiment: Phenotypic maturation of murine BM-DCs: surface maturation markers by FACS; assay type: cell-based, mouse; conditions: CD11c+ gated, mean fluorescence intensity, peptide 200 μg/ml, HMGB1-Bx 50 μg/ml; for CD86 expression on the surface of BM-DCs: FIG. 3A; for MHC-II expression on the surface of BM-DCs: FIG. 3B; for CD40 expression on the surface of BM-DCs: FIG. 3C
Experimental: In order to determine whether HMGB1-Bx and/or particular HMGB1 peptides could induce phenotypic maturation of murine DCs, immature BM-DCs were exposed to either HMGB1-Bx, a particular HMGB1 peptide, or LPS (FIG. 3). Fluorescence activated cell sorting (FACS) analysis was performed on immature DCs that were cultured in the presence of either HMGB1-Bx (50 μg/ml), an HMGB1 peptide (200 μg/ml), or LPS (100 ng/ml). Untreated DCs (medium) were also tested as a control. DCs were gated on CD11c^+ cells and analyzed for expression of specific maturation markers (e.g., CD86, MHC-II, CD40) by surface membrane immunofluorescence. In particular, 1×10^4 DCs were reacted for at least 20 min at 4° C. in […] of PBS/5% FCS/0.1% sodium azide (staining buffer) with fluorescein isothiocyanate (FITC)-conjugated IgG monoclonal antibodies (mAbs) that are specific for CD86, CD40 or MHC-II (eBioscience). Cells were then washed 4 times with staining buffer, fixed in 10% formaldehyde in PBS (pH 7.2-7.4) and examined by flow cytometry using a FACScan (BD Biosciences). In all experiments, isotype controls were included using a FITC-conjugated irrelevant mAb of the same Ig class. Results are depicted as mean fluorescence intensity (MFI).

[1] = test system: allogeneic T cells co-cultured with BM-DCs; experiment: Functional maturation of BM-DCs: allogeneic T cell proliferation in mixed lymphocyte reaction (3H-thymidine); assay type: cell-based, mouse; conditions: BM-DCs from C57/BL6 mice exposed 48 h; peptide 200 μg/ml, HMGB1-Bx 50 μg/ml; DC:T cell ratio 1:120, 5 days; FIG. 4A
Experimental: Immature BM-DCs that were generated from C57/BL6 mice (FIG. 4A) or Balb/c mice (FIG. 4B) were incubated for 48 h with either HMGB1-Bx (50 μg/ml), a particular HMGB1 peptide (200 μg/ml), LPS (100 ng/ml) or were left untreated (medium). T cells were isolated by negative selection using the mouse SpinSep antibody cocktail from StemCell Technologies (Vancouver, Calif.), according to the manufacturer's instructions. The cell purity of the isolated T cells was routinely ˜99% pure. In order to assess levels of T cell activation and proliferation, cells were plated at 10^5 cells per well in a round-bottomed 96-well tray at a DC:T cell ratio of 1:120 for 5 days in the medium described above. The microcultures were pulsed with (^3H)-thymidine ([…]) for the final 8 h of culture. Cell cultures were harvested onto glass fiber filters with an automated multiple sample harvester and the amount of isotope incorporation was determined by liquid scintillation β-emission. Responses are reported as mean cpm of thymidine incorporation by triplicate cultures (±SEM).

Sequence | CD86 expression on the surface of BM-DCs (immature BM-DCs) | MHC-II expression on the surface of BM-DCs (immature BM-DCs) | CD40 expression on the surface of BM-DCs (immature BM-DCs) | proliferation of resting allogeneic T cells (3H thymidine incorporation) [1]
CSEYRPKIKGEHPGLSIG [Hp-106] (Biotin-CSEYRPKIKGEHPGLSIG; listed as Homo sapiens) | did not significantly enhance | did not significantly enhance | did not significantly enhance | activated proliferation
YAFFVQTCREEHIKKHPD [Hp-16] | strong upregulation | strong upregulation | strong upregulation | activated proliferation

Reference: US8354106B2, “Antibodies against HMGB1 and fragments thereof” (The Feinstein Institute for Medical Research, priority 2005, dated 2013)
